Data taken from US20150258082A1, “COMBINATION THERAPY WITH GLUTAMINASE INHIBITORS” (priority 2014, published 2015).
pIC50: −log10 of the molar value. Where two headings read alike, the source gives them in different places.

Tests used:
P493-6 (myc "on") cells = assay: Cell Proliferation Assay, P493-6 cells, 72 hrs; format: cell-based
Experimental: For compound assay, P493-6 cells were plated in 96-well V-bottom plates on the day of compound addition in 50 μl of growth media at a cell density of 200,000 cells/ml (10,000 cells/well). Compounds were serially diluted in 100% DMSO at 200-times the final concentration. Compounds were diluted 100-fold into growth media and then 50 μl of this mixture was added to cell plates making the final concentration of DMSO 0.5%. Cells were incubated with compound for 72 hrs at 37° C. with 5% CO2 and analyzed for antiproliferative effects either by Cell Titer Glo (Promega) or FACS analysis using the Viacount (Millipore) kit on the Guava instrument.

[1] = target: T1, recombinant form of Glutaminase 1 (GAC) (Homo sapiens, UniProt O94925); assay: Recombinant Enzyme Assay (no preincubation); format: biochemical; conditions: read-out: GAC Delta N2 IC50 no preinc
T1 sequence (O94925 137-598 isoform O94925-3 limits assumed): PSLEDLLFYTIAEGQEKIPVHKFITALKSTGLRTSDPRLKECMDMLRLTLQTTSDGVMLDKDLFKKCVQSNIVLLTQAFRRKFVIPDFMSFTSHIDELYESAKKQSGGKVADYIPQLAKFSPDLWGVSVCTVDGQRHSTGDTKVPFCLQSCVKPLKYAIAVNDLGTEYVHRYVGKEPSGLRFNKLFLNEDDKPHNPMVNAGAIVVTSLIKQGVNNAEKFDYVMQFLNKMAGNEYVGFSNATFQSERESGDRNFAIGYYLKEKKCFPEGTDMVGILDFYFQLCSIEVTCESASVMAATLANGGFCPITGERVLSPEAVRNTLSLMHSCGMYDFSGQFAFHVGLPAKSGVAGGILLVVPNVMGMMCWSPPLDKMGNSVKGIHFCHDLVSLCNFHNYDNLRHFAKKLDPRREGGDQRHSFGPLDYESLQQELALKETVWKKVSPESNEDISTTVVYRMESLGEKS
Experimental: Compounds were assessed for their ability to inhibit the enzymatic activity of a recombinant form of Glutaminase 1 (GAC) using a biochemical assay that couples the production of glutamate (liberated by GAC) to glutamate dehydrogenase (GDH) and measuring the change in absorbance for the reduction of NAD^+ to NADH. […] Enzymatic reaction was started with the addition of 50 μL of enzyme solution (50 mM Tris-HCl pH 8.0, 0.2 mM EDTA, 150 mM K2HPO4, 0.1 mg/ml BSA, 1 mM DTT, 10 ppm antifoam, 4 units/ml GDH, 4 mM adenosine diphosphate, and 4 nM GAC) and read in a Molecular Devices M5 plate reader at 20° C. The plate reader was configured to read absorbance (λ=340 nm) in kinetic mode for 15 minutes. Data was recorded as milli-absorbance units per minute and slopes were compared to a control compound and a DMSO-only control on the same plate. Compounds with slopes less than the DMSO control were considered inhibitors and plate variability was assessed using the control compound.

[2] = target: T1, recombinant form of Glutaminase 1 (GAC); assay: Recombinant Enzyme Assay - Time Dependence (60 min preincubation); format: biochemical
Experimental: The enzyme/compound mix was sealed with sealing foil (USA Scientific) and allowed to incubate, with mild agitation, for 60 minutes at 20° C. Enzymatic reaction was started with the addition of 50 μL of substrate solution (50 mM Tris-HCl pH 8.0, 0.2 mM EDTA, 150 mM K2HPO4, 0.1 mg/ml BSA, 1 mM DTT, 20 mM L-glutamine, 2 mM NAD^+, and 10 ppm antifoam) and read in a Molecular Devices M5 plate reader at 20° C. The plate reader was configured to read absorbance (λ=340 nm) in kinetic mode for 15 minutes. Data was recorded as milli-absorbance units per minute and slopes were compared to a control compound and a DMSO-only control on the same plate. Compounds with slopes less than the DMSO control were considered inhibitors and plate variability was assessed using the control compound.

[3] = tested on: RPMI-8226 multiple myeloma xenograft; assay: Multiple myeloma xenograft study, compound 670 and lenalidomide; format: in vivo, mice; conditions: compound 670 200 mg/kg oral BID + lenalidomide 30 mg/kg oral QD, 24 days; P<0.0001 vs vehicle and lenalidomide alone, P<0.01 vs CB-839 alone
Experimental: Female scid/beige mice (n=40) age 7-8 weeks were implanted subcutaneously with 3×10^7 RPMI-8226 multiple myeloma cells per mouse mixed 1:1 with Matrigel. […] Tumors were measured with calipers three times per week and tumor volume calculated using the formula tumor volume (mm^3)=(a×b^2/2) where ‘b’ is the smallest diameter and ‘a’ is the largest perpendicular diameter. ****P-value<0.0001 (One-way ANOVA vs. vehicle and vs. Lenalidomide alone) **P-value<0.01 (One-way ANOVA vs. CB-839 alone).

[4] = tested on: MM1S cells and RPMI-8226 cells; assay: Combination of compound 670 with pomalidomide or lenalidomide, cell survival and combination index; format: cell-based; conditions: 72 hours; cells resistant to pomalidomide or lenalidomide or not; combination index by Calcusyn
Experimental: At the end of the incubation, cell viability was measured using Cell Titer Glo as per manufacturer's protocol (Promega, Madison, Wis.). Measured values for compound-treated cells were normalized to DMSO-treated cells and data is reported as a cell survival ratio with a value of 1 (one) corresponding to maximum cell survival and a value of 0 (zero) corresponding to no cell survival. Cell survival ratios for all compound treatments are represented as bar graphs. Combination indices were calculated using the Calcusyn program (biosoft.com) and reported for individual mixtures of compound 670 and either pomalidomide or lenalidomide. Compound mixtures that produced a synergistic anti-tumor activity are highlighted.

[5] = tested on: RPMI-8226 multiple myeloma xenograft; assay: Multiple myeloma xenograft study with CB-839, pomalidomide and combination; format: in vivo, mice; conditions: CB-839 200 mg/kg oral BID + pomalidomide 1 mg/kg oral QD; P<0.01
Experimental: Female scid/beige mice (age 7-9 weeks) were implanted subcutaneously with 1×10^7 RPMI-8226 myeloma cells mixed 1:1 with matrigel. Tumors were measured with calipers three times per week and tumor volume calculated using the formula tumor volume (mm^3)=(a×b^2/2) where ‘b’ is the smallest diameter and ‘a’ is the largest perpendicular diameter.

RPMI-8226 cells = assay: Anti-proliferative activity in multiple myeloma cell line RPMI-8226 (Cell Titer Glo, 72 hrs); format: cell-based
Experimental: Multiple myeloma cell lines RPMI-8226 and MM1S were seeded in 96-well plates at a density of 10,000 cells/well. […] Cells were incubated for 72 hrs at 37° C. with 5% CO2 and analyzed for antiproliferative effects by Cell Titer Glo (Promega). Cell proliferation (% of DMSO control) was determined by comparing the Cell Titer Glo signal (rfu) of compound 670-, lenalidomide-, or pomalidomide-treated cells versus DMSO treated cells. Cell viability (% DMSO of control) was plotted against compound concentration and resulting curves were fit using a four-parameter dose response to determine IC50 values.

[6] = P493-6, 72 h, read-out: Cell prolif P493 72h IC50, P493 cells, 72h

O=C(OCCCN1CCOCC1)OCN(C(=O)Cc1ccccc1)c1nnc(CCSCCc2nnc(N(COC(=O)OCCCN3CCOCC3)C(=O)Cc3ccccc3)s2)s1 [compound 28]
pIC50 (P493-6 (myc "on") cells; [6]): 6.00

O=C(Nc1nnc(CCSCCc2nnc(NC(=O)C(c3ccccc3)N3CCNCC3)s2)s1)C(c1ccccc1)N1CCNCC1 (centres unmarked) [compound 79]
pIC50 (P493-6 (myc "on") cells; [6]): 4.70

O=C(Nc1nnc(CCCCc2nnc(NC(=O)[C@@H]3CC3c3ccccc3)s2)s1)C1C[C@H]1c1ccccc1 (some centres unmarked) [compound 90]
pIC50 [1]: < 4.70

O=C(Cc1cccc(F)c1)Nc1nnc(CCCCc2nnc(NC(=O)C[C@@H](O)C(=O)O)s2)s1 [compound 153]
pIC50 [1]: 6.00
pIC50 (P493-6 (myc "on") cells; [6]): < 4.30

C=C(C(=O)Nc1nnc(CCCCc2nnc(NC(=O)C(COC(=O)CCN3CCOCC3)c3ccccc3)s2)s1)c1ccccc1 (centres unmarked) [compound 281]
pIC50 (P493-6 (myc "on") cells; [6]): 6.18

O=C(COC(C(=O)Nc1nnc(CCCCc2nnc(NC(=O)C(COC(=O)C3CCN(C(=O)OCc4ccccc4)CC3)c3ccccc3)s2)s1)c1ccccc1)C1CCN(C(=O)OCc2ccccc2)CC1 (centres unmarked) [compound 301]
pIC50 (P493-6 (myc "on") cells; [6]): 6.64

O=C(COC(C(=O)Nc1nnc(CCCCc2nnc(NC(=O)C(COC(=O)C3CCNCC3)c3ccccc3)s2)s1)c1ccccc1)C1CCNCC1 (centres unmarked) [compound 302]
pIC50 [1]: 5.15
pIC50 (P493-6 (myc "on") cells; [6]): 6.06

CCOc1ccc(C(O)C(=O)Nc2nnc(CCCCc3ccc(NC(=O)Cc4ccccc4)nn3)s2)cc1 (centres unmarked) [compound 558]
pIC50 (P493-6 (myc "on") cells; [6]): 7.55

COC(=O)NCC1=CC(CC(=O)Nc2ccc(CCCCc3nnc(NC(=O)Cc4cccc(CNC(=O)OC)c4)s3)nn2)=CCC1 [compound 573]
pIC50 [2]: 8.40
pIC50 (P493-6 (myc "on") cells; [6]): 7.82

O=C(Cc1cccc(OC(F)(F)F)c1)Nc1ccc(CCCCc2nnc(NC(=O)Cc3ccccn3)s2)nn1 [compound 670]
pIC50 (P493-6 (myc "on") cells; read-out: Cell prolif P493 72h IC50, P493 cells, 72h): 7.52
reduction in tumor size, combination with lenalidomide vs either agent alone [3]: greater reduction in tumor size
combination effect with lenalidomide in multiple myeloma cells [4]: synergizes
combination effect with pomalidomide in multiple myeloma cells [4]: synergizes
reduction in tumor size, combination with pomalidomide vs either agent alone [5]: greater reduction in tumor size

O=C(Cc1ccc(Cl)c(CC(F)(F)F)c1)Nc1ccc(CCCCc2nnc(NC(=O)Cc3ccccn3)s2)nn1 [compound 721]
pIC50 (P493-6 (myc "on") cells; P493-6, 72 h, read-out: Cell prolif P493 72h IC50, P493-6 cells, 72 h): 7.66

Nc1cccc2c1CN(C1CCC(=O)NC1=O)C2=O (centres unmarked) [lenalidomide]
sensitivity of RPMI-8226 myeloma cells to the agent (RPMI-8226 cells): resistant

Nc1cccc2c1C(=O)N(C1CCC(=O)NC1=O)C2=O (centres unmarked) [pomalidomide]
sensitivity of RPMI-8226 myeloma cells to the agent (RPMI-8226 cells): resistant
